# Data taken from patent publication EP4603105A1, “PHARMACEUTICAL COMPOSITION CONTAINING CYCLIC COMPOUND HAVING SELECTIVE KRAS INHIBITORY EFFECT AGAINST HRAS AND NRAS” (CHUGAI SEIYAKU KABUSHIKI KAISHA, priority 2022, dated 2024).
# Key:
# [1] = tested on: human lung cancer strain NCI-H441; format: cell-based
# Summary of the method: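 Readout: […] after the ATP-based reagent. Compound: serial dilutions in dimethyl sulfoxide.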
# [2] = target: GDP-bound NRAS wild-type protein (Homo sapiens, UniProt P01111); assay: Binding to NRAS by surface plasmon resonance (SPR), KD and KD ratio to KRAS; settings: ratio of KD for GDP-bound NRAS wild-type protein to KD for KRAS
# Summary of the method: (§1)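 Affinity is measured by surface plasmon resonance at 30°C against captured, GDP-loaded RAS carrying a biotinylated Avi tag. Compounds are titrated by single-cycle kinetics, and KD comes from a 1:1 fit.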
# HRAS wild-type protein = HRAS wild-type protein (Homo sapiens, UniProt P01112); assay: Binding to HRAS by surface plasmon resonance (SPR), KD and KD ratio to KRAS; settings: ratio of KD for HRAS wild-type protein to KD for KRAS
# Summary of the method: as §1
# GDP-bound NRAS wild-type protein, sequence (P01111 whole entry): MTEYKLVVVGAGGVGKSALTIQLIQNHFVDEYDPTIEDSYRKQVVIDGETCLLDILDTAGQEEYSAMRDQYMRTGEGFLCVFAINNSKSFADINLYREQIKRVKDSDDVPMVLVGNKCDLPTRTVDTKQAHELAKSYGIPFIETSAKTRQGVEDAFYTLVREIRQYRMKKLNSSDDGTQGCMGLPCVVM
# HRAS wild-type protein, sequence (P01112 whole entry): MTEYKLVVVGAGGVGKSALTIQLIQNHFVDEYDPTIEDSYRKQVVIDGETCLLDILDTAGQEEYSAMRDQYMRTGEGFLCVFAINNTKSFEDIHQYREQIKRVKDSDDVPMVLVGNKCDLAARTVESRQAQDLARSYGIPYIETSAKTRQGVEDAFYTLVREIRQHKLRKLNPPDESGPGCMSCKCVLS
Compound,IC50 [1],NRAS /KRAS [2],HRAS /KRAS (HRAS wild-type protein)
CCO[C@@H]1C[C@H]2C(=O)NC3(CCC3)C(=O)N(C)[C@@H](C3CCCC3)C(=O)N(C)[C@H](C(=O)N3CCOCC3)CC(=O)N(C)[C@@H](CC(C)C)C(=O)N[C@@H]([C@@H](C)CC)C(=O)N3CC[C@H]3C(=O)N(C)[C@H]3CC(C)=CCN(C3=O)[C@@H](Cc3ccc(C(F)(F)F)cc3)C(=O)N(C)CC(=O)N[C@@H](CCc3cc(F)c(C(F)(F)F)c(F)c3)C(=O)N2C1 [PP1040],0.0187 µM,C (A compound having a KD ratio of 0.1 or more and less than 3 is denoted as C),C (A compound having a KD ratio of 0.1 or more and less than 3 is denoted as C)
CCO[C@@H]1C[C@H]2C(=O)NC3(CCC3)C(=O)N(C)[C@@H](C3CCCC3)C(=O)N(C)[C@H](C(=O)N3CCOCC3)CC(=O)N(C)[C@@H](CC)C(=O)N[C@@H]([C@@H](C)CC)C(=O)N(C)CC(=O)N(C)[C@H]3CC(C)=CCN(C3=O)[C@@H](Cc3ccc(C(F)(F)F)cc3)C(=O)N(C)CC(=O)N[C@@H](CCc3cc(F)c(C(F)(F)F)c(F)c3)C(=O)N2C1 [PP1041],0.223 µM,C (A compound having a KD ratio of 0.1 or more and less than 3 is denoted as C),C (A compound having a KD ratio of 0.1 or more and less than 3 is denoted as C)
CCO[C@@H]1C[C@H]2C(=O)NC3(CCC3)C(=O)N(C)[C@@H](C3CCCC3)C(=O)N(C)[C@H](C(=O)N3CCOCC3)CC(=O)N(C)[C@@H](CC)C(=O)N[C@@H]([C@@H](C)CC)C(=O)N3CC[C@H]3C(=O)N(C)[C@H]3CC(C)=CCN(C3=O)[C@@H](Cc3ccc(C(F)(F)F)cc3)C(=O)N(C)CC(=O)N[C@@H](CCc3cc(F)c(C(F)(F)F)c(F)c3)C(=O)N2C1 [PP1042],0.349 µM,C (A compound having a KD ratio of 0.1 or more and less than 3 is denoted as C),C (A compound having a KD ratio of 0.1 or more and less than 3 is denoted as C)
CCO[C@@H]1C[C@H]2C(=O)NC3(CCCC3)C(=O)N(C)[C@@H](C3CCCC3)C(=O)N(C)[C@H](C(=O)N3CCOCC3)CC(=O)N(C)[C@@H](CC)C(=O)N[C@@H]([C@@H](C)CC)C(=O)N(C)CC(=O)N(C)[C@H]3CC(C)=CCN(C3=O)[C@@H](Cc3ccc(C(F)(F)F)cc3)C(=O)N(C)CC(=O)N[C@@H](CCc3cc(F)c(C(F)(F)F)c(F)c3)C(=O)N2C1 [PP1043],0.387 µM,C (A compound having a KD ratio of 0.1 or more and less than 3 is denoted as C),C (A compound having a KD ratio of 0.1 or more and less than 3 is denoted as C)
CCO[C@@H]1C[C@H]2C(=O)NC3(CCC3)C(=O)N(C)[C@@H](C3CCCC3)C(=O)N(C)[C@H](C(=O)N3CCOCC3)CC(=O)N(CC)[C@@H](CC(C)C)C(=O)N[C@@H]([C@@H](C)CC)C(=O)N(C)CC(=O)N(C)[C@H]3CC(C)=CCN(C3=O)[C@@H](Cc3ccc(C(F)(F)F)cc3)C(=O)N(C)CC(=O)N[C@@H](CCc3cc(F)c(C(F)(F)F)c(F)c3)C(=O)N2C1 [PP1044],0.0441 µM,C (A compound having a KD ratio of 0.1 or more and less than 3 is denoted as C),C (A compound having a KD ratio of 0.1 or more and less than 3 is denoted as C)
CCO[C@@H]1C[C@H]2C(=O)NC3(CCCC3)C(=O)N(C)[C@@H](C3CCCC3)C(=O)N(C)[C@H](C(=O)N(C)C)CC(=O)N(C)[C@@H](CC(C)C)C(=O)N[C@@H]([C@@H](C)CC)C(=O)N(C)CC(=O)N(C)[C@H]3CC(C)=C(C)CN(C3=O)[C@@H](Cc3ccc(C(F)(F)F)cc3)C(=O)N(C)CC(=O)N[C@@H](CCc3cc(F)c(C(F)(F)F)c(F)c3)C(=O)N2C1 [PP1045],0.207 µM,C (A compound having a KD ratio of 0.1 or more and less than 3 is denoted as C),C (A compound having a KD ratio of 0.1 or more and less than 3 is denoted as C)
CCO[C@@H]1C[C@H]2C(=O)NC3(CCC3)C(=O)N(C)[C@@H](C3CCCC3)C(=O)N(C)[C@H](C(=O)N(C)C)CC(=O)N(C)[C@@H](CC(C)C)C(=O)N[C@@H]([C@@H](C)CC)C(=O)N3CC[C@H]3C(=O)N(C)[C@H]3CC(C)=C(C)CN(C3=O)[C@@H](Cc3ccc(C(F)(F)F)cc3)C(=O)N(C)CC(=O)N[C@@H](CCc3cc(F)c(C(F)(F)F)c(F)c3)C(=O)N2C1 [PP1047],0.117 µM,C (A compound having a KD ratio of 0.1 or more and less than 3 is denoted as C),C (A compound having a KD ratio of 0.1 or more and less than 3 is denoted as C)
CCO[C@@H]1C[C@H]2C(=O)NC3(CCC3)C(=O)N(C)[C@@H](C3CCCC3)C(=O)N(C)[C@H](C(=O)N(C)C)CC(=O)N(C)[C@@H](CC)C(=O)N[C@@H]([C@@H](C)CC)C(=O)N3CC[C@H]3C(=O)N(C)[C@H]3CC(C)=C(C)CN(C3=O)[C@@H](Cc3ccc(C(F)(F)F)cc3)C(=O)N(C)CC(=O)N[C@@H](CCc3cc(F)c(C(F)(F)F)c(F)c3)C(=O)N2C1 [PP1049],0.359 µM,C (A compound having a KD ratio of 0.1 or more and less than 3 is denoted as C),C (A compound having a KD ratio of 0.1 or more and less than 3 is denoted as C)
CCO[C@@H]1C[C@H]2C(=O)NC3(CCCC3)C(=O)N(C)[C@@H](C3CCCC3)C(=O)N(C)[C@H](C(=O)N(C)C)CC(=O)N(C)[C@@H](CC)C(=O)N[C@@H]([C@@H](C)CC)C(=O)N(C)CC(=O)N(C)[C@H]3CC(C)=C(C)CN(C3=O)[C@@H](Cc3ccc(C(F)(F)F)cc3)C(=O)N(C)CC(=O)N[C@@H](CCc3cc(F)c(C(F)(F)F)c(F)c3)C(=O)N2C1 [PP1050],0.815 µM,C (A compound having a KD ratio of 0.1 or more and less than 3 is denoted as C),C (A compound having a KD ratio of 0.1 or more and less than 3 is denoted as C)
CCO[C@@H]1C[C@H]2C(=O)NC3(CCC3)C(=O)N(C)[C@@H](C3CCCC3)C(=O)N(C)[C@H](C(=O)N(C)C)CC(=O)N(C)[C@@H](CC)C(=O)N[C@@H]([C@@H](C)CC)C(=O)N(CC)CC(=O)N(C)[C@H]3C/C=C\CCN(C3=O)[C@@H](Cc3ccc(C(F)(F)F)cc3)C(=O)N(C)CC(=O)N[C@@H](CCc3cc(F)c(C(F)(F)F)c(F)c3)C(=O)N2C1 [PP1052],0.0587 µM,A (a compound having 10 or more and less than 20 is denoted as A),A (a compound having 10 or more and less than 20 is denoted as A)
CCCN1CC(=O)N(C)[C@H]2C/C=C\CCN(C2=O)[C@@H](Cc2ccc(C(F)(F)F)cc2)C(=O)N(C)CC(=O)N[C@@H](CCc2cc(F)c(C(F)(F)F)c(F)c2)C(=O)N2C[C@H](OCC)C[C@H]2C(=O)NC2(CCC2)C(=O)N(C)[C@@H](C2CCCC2)C(=O)N(C)[C@H](C(=O)N(C)C)CC(=O)N(C)[C@@H](CC)C(=O)N[C@@H]([C@@H](C)CC)C1=O [PP1053],0.0678 µM,A (a compound having 10 or more and less than 20 is denoted as A),A (a compound having 10 or more and less than 20 is denoted as A)
